Patent US5547856A, “Hepatocyte growth factor variants” (Genentech, Inc., priority 1993, dated 1996)
pKd: −log10 of the molar value. “Also recorded” adds a separate entry of the source.

Tests used:
[1] = system: rat hepatocytes in primary culture; test: Mitogenic assay: induction of DNA synthesis (3H-TdR incorporation) of rat hepatocytes in primary culture; format: cell-based; conditions: for SA +/- mut/wt: Table 3, alterations near or within the hairpin domain; for SA +/- mut/wt / SA mut/wt +/- SD / SA var/SA wt +/-S.D.: * = did not reach the same absolute level as wild-type huHGF; for SA mut/wt +/- SD: Table 2, specific mitogenic activity relative to wt rhuHGF; for residual SA compared to WT rhuHGF: % of WT rhuHGF specific activity; for SA var/SA wt +/-S.D.: Table 1, specific mitogenic activity of variant relative to WT rhuHGF, at least three independent assays
Protocol: The biological activity of WT huHGF and variants was measured by their abilities to induce DNA synthesis of rat hepatocytes in primary culture. […] Briefly, the livers of female Sprague Dawley rats (160-180 g) were perfused through the portal vein with 100 mL of Ca^++ free Hepes buffered saline containing 0.02% Collagenase type IV (Sigma). After 20 minutes the liver was removed, placed in buffer, gently stirred to separate hepatocytes from connective tissue and blood vessels, and filtered through nylon mesh. Cells were then washed by centrifugation, resuspended at 1×10^5 cells/mL in Williams Media E (Gibco) containing Penicillin (100 U/ml), Streptomycin ([…]), L-Glutamine (2 mM), trace elements (0.01%), transfertin ([…]) and Aprotinin ([…]). […] After 48 hours incubation at 37° C., 0.5 mCi 3H-TdR (15 Ci/mmole, Amersham) was added to each well and incubated for an additional 16 hours. Cells were harvested on filter papers, which were washed, dried and counted in a Beckman counter after addition of scintillation liquid. For each huHGF variant, the specific activity (SA) expressed in units/mg was calculated at half-maximal proliferation (defined as 1 unit/mL) using the HGF concentration obtained in ELISA.

[2] = target: extracellular domain of the human HGF receptor (huHGFr) fused to the Fc constant region of an human IgG; test: Soluble HGF receptor competitive binding assay (displacement of 125I-rhuHGF); conditions: for Kdwt/mut: Table 2, Kd ratio wild type/mutant; for Kdwt/Kdvar +/-S.D.: Table 1, receptor binding capacity relative to WT rhuHGF, at least three independent assays; for receptor binding / Kd (in words): compared to WT rhuHGF; for pKd: binding to HGF receptor:IgG fusion protein, calculated at the IC50 from fitted inhibition curves
Protocol: The coding sequence of the extracellular domain of the huHGFr was fused to those of the human IgGl heavy chain in a two-step process. […] The 5' primer (located in the vector upstream of the HeFr coding sequences) and the 3' primer (5'-[…]-3') (SEQ. ID. NO: 21) were used in a 100 μl reaction as described above except that the extension time at 72° C. was 3 minutes, and 40 ng of the full length HGFr expression vector was used as template. […] Sequencing of the construct was carried out as described above.
The binding assay was performed in breakable microtiter plates (Nunc) coated o/n at 4° C. with […] of rabbit-anti-human IgG Fc specific antibody (Jackson Immunoresearch) and plates were carefully washed with PBS containing 0.05% Tween 20 (Biorad). […] To each well […] of serial dilutions (1:25-1:6000) of cell supernatants, purified CHO-expressed rhuHGF ([…]) or medium were added in duplicates. Subsequently, […] of 50 pM of HGF receptor:IgG fusion protein were added and the plates were incubated with gentle shaking. After 4 hours, when equilibrium was reached, plates were washed and wells were individually counted in a gamma-counter. The amount of nonspecifically bound radioactivity was estimated by incubating HGF receptor:IgG with a 500-fold excess of unlabelled rhuHGF.

[3] = system: cell surface receptor on hepatocytes; conditions: Higuchi and Nakamura 1991; cited from earlier work
[4] = system: 145 kDa β-subunit of the HGF receptor in A549 cells; test: Induction of tyrosine phosphorylation of the HGF receptor on A549 cells (Western blot); format: cell-based, human; conditions: serum-starved A549 cells, 200 ng/mL purified protein, 5 minutes
Protocol: FIG. 4: Western blot of ligand-induced tyrosine-phosphorylation on the 145 kDa β-subunit of the HGF receptor by wild-type rhuHGF, single-chain or protease domain huHGF variants. […] Molecular masses (kilodaltons) are as indicated.
Serum-starved cells were incubated without or with 200 ng/mL rhuHGF for 5 minutes at 37° C. and extracted with lysis buffer containing 50 mM Hepes, 150 mM NaCl, 1.5 mM MgCl2, 1 mM EGTA, 10% Glycerol, 1% Triton X-100 and a cocktail of protease inhibitors. The lysates were immunoprecipitated with anti-Met COOH antibodies and blotted with anti-phosphotyrosine antibodies (see Western blotting above).

Row | Kdwt/mut [2] | Substance | SA +/- mut/wt [1] | SA mut/wt +/- SD [1] | further results
1 | – | D117A: huHGF variant with alteration near or within the hairpin domain | 0.02 | – | –
2 | – | D54A: huHGF variant with alteration near or within the hairpin domain | 0.13 +/- 0.01 | – | –
3 | 0.95 +/- 0.04 | R181A, E183A, E184A: huHGF Kringle 1 domain substitution variant | – | 0.92 +/- 0.08 | –
4 | – | Q534H, Y673S: huHGF protease domain double variant | – | – | residual SA compared to WT rhuHGF [1]: less than 3%; SA var/SA wt +/-S.D. [1]: < 0.03; Kdwt/Kdvar +/-S.D. [2]: 2.24 +/- 1.11; receptor binding / Kd (in words) [2]: not significantly different from WT rhuHGF
5 | – | K52A: huHGF variant with alteration near or within the hairpin domain | 0.19 +/- 0.03 | – | –
6 | 0.62 +/- 0.20 | N193A: huHGF Kringle 1 domain substitution variant | – | 0.45 +/- 0.12 | –
7 | – | huHGF: human hepatocyte growth factor as studied in the literature for binding to hepatocytes | – | – | pKd [3]: 10.49 to 10.62
8 | < 0.03 | E159A: huHGF Kringle 1 domain substitution variant | – | < 0.02 | –
9 | < 0.03 | R197A: huHGF Kringle 1 domain substitution variant | – | < 0.01 | –
10 | 0.05 +/- 0.01 | F162A: huHGF Kringle 1 domain substitution variant | – | 0.04 +/- 0.02 | –
11 | – | R494E | – | – | tyrosine phosphorylation of the HGF receptor (in words) [4]: reduced ability to induce phosphorylation of the HGF receptor; also recorded: not efficient in stimulating tyrosine-phosphorylation in A549 cells; SA var/SA wt +/-S.D. [1]: < 0.02; Kdwt/Kdvar +/-S.D. [2]: 0.31 +/- 0.13
12 | – | Y673S, V692S | – | – | tyrosine phosphorylation of the HGF receptor (in words) [4]: reduced ability to induce phosphorylation of the HGF receptor; also recorded: not efficient in stimulating tyrosine-phosphorylation in A549 cells; residual SA compared to WT rhuHGF [1]: less than 3%; SA var/SA wt +/-S.D. [1]: < 0.02; Kdwt/Kdvar +/-S.D. [2]: 1.76 +/- 0.63; receptor binding / Kd (in words) [2]: not significantly different from WT rhuHGF
13 | – | H114A, E115A, D117A: huHGF variant with alterations near or within the hairpin domain | < 0.02 | – | –
14 | – | K34A, R35A, R36A: huHGF variant with alterations near or within the hairpin domain | 0.71 +/- 0.33 | – | –
15 | 0.77 | Y198A: huHGF Kringle 1 domain substitution variant | – | 0.88 +/- 0.06 | –
16 | – | Q534H, Y673S, V692S: huHGF protease domain triple variant | – | – | residual SA compared to WT rhuHGF [1]: less than 3%; SA var/SA wt +/-S.D. [1]: < 0.02; Kdwt/Kdvar +/-S.D. [2]: 1.91 +/- 1.28; receptor binding / Kd (in words) [2]: not significantly different from WT rhuHGF
17 | – | R126A, N127A: huHGF variant with alterations near or within the hairpin domain | 0.33 +/- 0.14 | – | –
18 | < 0.04 | N193A, E195A, R197A: huHGF Kringle 1 domain substitution variant | – | < 0.02 | –

Row | Kdwt/mut [2] | Substance | SA +/- mut/wt [1] | SA mut/wt +/- SD [1] | further results
19 | – | K109A, K110A, E111A: huHGF variant with alterations near or within the hairpin domain | 0.98 +/- 0.04 | – | –
20 | 0.05 +/- 0.02 | F162A, L163A, S165A, S166A: huHGF Kringle 1 domain substitution variant | – | < 0.02 | –
21 | – | E115A: huHGF variant with alteration near or within the hairpin domain | 0.20 +/- 0.02 | – | –
22 | 0.98 +/- 0.04 | R168A: huHGF Kringle 1 domain substitution variant | – | 0.83 +/- 0.07 | –
23 | 1.10 +/- 0.04 | L163A, S165A, S166A: huHGF Kringle 1 domain substitution variant | – | 0.14 +/- 0.08 | –
24 | – | K58A, K60A, K62A, K63A, N65A: huHGF variant with alterations near or within the hairpin domain | 6.96 +/- 0.12 | – | –
25 | – | N72A, R76A, N77A, K78A: huHGF variant with alterations near or within the hairpin domain | 0.04 +/- 0.07 | – | –
26 | – | H114A: huHGF variant with alteration near or within the hairpin domain | 0.16 +/- 0.04 | – | –
27 | 1.03 +/- 0.08 | K144A, K148A: huHGF Kringle 1 domain substitution variant | – | 0.93 +/- 0.16 | –
28 | 0.98 +/- 0.04 | K137A: huHGF Kringle 1 domain substitution variant | – | 1.12 +/- 0.10 | –
29 | – | V692S: huHGF protease domain variant, V692 replaced with S | – | – | fold reduction of SA compared to wt rhuHGF [1]: ~10 fold; maximum plateau of mitogenic response [1]: approximately 50 % of wt rhuHGF plateau; SA var/SA wt +/-S.D. [1]: 0.08 +/- 0.04; Kdwt/Kdvar +/-S.D. [2]: 1.02 +/- 0.13; receptor binding / Kd (in words) [2]: Kd similar to WT rhuHGF
30 | 0.21 +/- 0.03 | Q173A, E174A, N175A: huHGF Kringle 1 domain substitution variant | – | 0.33 +/- 0.07 | –
31 | – | Q534H: huHGF protease domain variant, Q534 replaced with H | – | – | SA var/SA wt +/-S.D. [1]: 1.19 +/- 0.44; Kdwt/Kdvar +/-S.D. [2]: 1.48 +/- 0.85; pKd [2]: 10.22
32 | 1 | wt rhuHGF: wild-type recombinant human hepatocyte growth factor, 728 amino acid form (Miyazawa et al. 1989) [reference compound] | 1 | 1 | tyrosine phosphorylation of the HGF receptor (in words) [4]: led to the phosphorylation on tyrosine of the 145 kDa β-subunit of the HGF receptor; pKd [2]: 10.15; pKd ([2]; listed as WT rhuHGF): 10.15 to 10.30
33 | – | Y673S: huHGF protease domain variant, Y673 replaced with S | – | – | fold reduction of SA compared to wt rhuHGF [1]: approximately 5 fold; maximum plateau of mitogenic response [1]: approximately 50 % of wt rhuHGF plateau; SA var/SA wt +/-S.D. [1]: 0.27 +/- 0.07; Kdwt/Kdvar +/-S.D. [2]: 1.35 +/- 0.72; receptor binding / Kd (in words) [2]: Kd similar to WT rhuHGF
34 | – | K52A, D54A: huHGF variant with alterations near or within the hairpin domain | 0.32 +/- 0.03 | – | –
35 | 0.15 +/- 0.05 | Q173A: huHGF Kringle 1 domain substitution variant | – | 0.13 +/- 0.03 | –
